Results on 79 molecules are retold here after the METLIN SMRT retention time set (Domingo-Almenara et al. 2019).

This data set can be described thus: gradient 5% acetonitrile 3 min, to 50% in 2 min, to 85% in 15 min, held 3 min, 100 µL/min. The settings on record: column: Zorbax Extend-C18 2.1 x 50 mm; eluents: water / acetonitrile, 0.1% formic acid. The gist of the method:
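Using water and acetonitrile that each contained 0.1% formic acid, mixtures of ~100 pure standards were separated at 100 μL/min on a Zorbax Extend-C18 column (2.1 × 50 mm, 1.8 μm). The HPLC fed a quadrupole time-of-flight mass spectrometer working in positive and negative ionization mode, with dead and dwell volumes of 40 μL and 900 μL. Data were acquired over 3 months. Retention time was read from computationally picked adduct peaks after manual inspection of each.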
The molecule `CCS(=O)(=O)c1ccc2c(c1)N(Cc1nc(-c3ccc4c(c3)OCO4)no1)C(=O)CO2` yielded an RP-LC retention time of 859 s.
`CCOc1ccc(N(C)S(=O)(=O)c2ccsc2C(=O)NCCCc2ccccc2)cc1`: the RP-LC retention time is 1210 s.
With `O=S(=O)(c1ccc2c(c1)CCC2)N1CCC(Cc2nc(-c3cccnc3)n[nH]2)C1` (centres undefined) the figure was 694 s.
`CN(C)C(=O)Oc1ccc2c(c1)O/C(=C\C=C\c1ccccc1)C2=O` yielded an RP-LC retention time of 1060 s.
The figure for `CCOC(=O)c1nnc2c(-c3ccc(F)cc3)c(C)nn2c1N` is 857 s; for `O=C(c1ccc(-c2cccnc2)nc1)N1CCN(c2ccc(F)cc2)CC1` it is 671 s.
With `O=C(NCc1csc(-c2ccccc2)n1)C1CCN(S(=O)(=O)c2ccccc2)CC1` the figure was 903 s; with `COc1ccc(-c2nc3ncccn3c2Nc2ccccc2)cc1`, 700 s.
Regarding `O=C(Cc1ccc(S(=O)(=O)N2CCN(c3ccccn3)CC2)s1)N1CCCC1`, the RP-LC retention time is 615 s.
In turn, `COc1ccc(-c2nc3cnccn3c2NCc2ccccc2)cc1` returned an RP-LC retention time of 719 s.
With `CCN(C(=O)Cn1cnc2nc3c(cc2c1=O)CCCC3)c1cccc(Cl)c1` the figure was 850 s; with `Cc1ccc(CN2CCN(CC(=O)NCCCc3ccccc3)C(=O)C2=O)cc1`, 794 s.
`O=C(Nc1ccc(F)cc1F)N1CCc2nc[nH]c2C1` showed an RP-LC retention time of 568 s.
The figure for `CC1=C(c2ccccc2)S(=O)(=O)N=C1N1CCCN(C(=O)c2cc(C)ccc2C)CC1` is 870 s.
Regarding `CCOc1ccc(-c2noc(CN3N=NC4C(=O)N(c5ccc(CC)cc5)C(=O)C43)n2)cc1OC` (centres undefined), the RP-LC retention time came out at 1030 s.
With `Cc1nnc(SCCC(=O)Nc2nc(-c3ccccc3)ns2)s1`, the RP-LC retention time amounted to 890 s.
Consider `Cc1ccc(S(=O)(=O)N2CCCC2)cc1-c1nnc(-c2ccccc2)o1`, for which the RP-LC retention time was determined as 1010 s.
With `Cc1cc(C)c(S(=O)(=O)N2CCCC2c2nc(-c3ccccc3)no2)c(C)c1` (centres undefined) the figure was 1230 s; with `COc1ccc(NC(=O)Cn2nc(C(=O)N3CCCCC3)c3ccccc32)cc1OC`, 756 s; with `CC1(C)SC(C)(C)N(C=O)C1C(=O)O` (centres undefined), 708 s.
The figure for `CCOc1ccc(NC(=O)C2CCN(S(=O)(=O)c3ccc4c(c3)NC(=O)C(CC)O4)CC2)cc1` (centres undefined) is 888 s.
With `CN(C)C(=O)CSc1nnc(-c2ccc3c(c2)OCCCO3)n1C1CC1` the figure was 676 s.
`O=C1CCc2cc(S(=O)(=O)N3CCN(c4ccc(F)cc4)CC3)cc3c2N1CCC3` registered an RP-LC retention time of 966 s.
With `CCc1ccc(NC(=O)Cc2c(C)nn(-c3nc(-c4ccc(C)cc4)cs3)c2C)cc1`, the RP-LC retention time stood at 1320 s.
With `Cn1cnc(C(=O)N2CC(c3nc(CCOCC4CCOCC4)no3)C2)c1` the figure was 579 s; with `CCc1ccc(NS(=O)(=O)c2c(C)nc3sc4cc(C)ccc4n3c2=O)cc1`, 1240 s.
With `CCc1nnc2ccc(-c3noc(-c4ccc(F)cc4F)n3)cn12`, the RP-LC retention time came out at 879 s.
With `Cc1ccc(NC(=O)N2CCC(CC(=O)N3CCCCC3)CC2)cc1Cl` the figure was 861 s.
The figure for `O=C(c1csc(S(=O)(=O)N2CCC(C(=O)N3CCCCCC3)CC2)c1)N1CCOCC1` is 722 s.
Take `O=C(O)CCC1CCN(C(=O)c2ccccc2Cl)CC1`: the RP-LC retention time was found to be 677 s.
With `CN(C)S(=O)(=O)c1ccc2c(c1)N(CC(=O)NCc1ccccc1)C(=O)C1CCCCN21` (centres undefined) the figure was 987 s; with `CCn1cc(CCNC(=O)c2ccc(Br)cc2)c2cccnc21`, 766 s; with `CN1c2ccccc2C(=O)N2CCc3c([nH]c4ccccc34)C21` (centres undefined), 890 s.
With `Cc1cc(N2CCN(C(=O)c3ccc(N(C)C)cc3)CC2)nc2nncn12` the figure was 575 s.
With `Cc1nc2ccc3nc(NC(=O)c4snnc4C)sc3c2s1` the figure was 772 s; with `O=C(c1cc(-c2ccccc2)n[nH]1)N1C[C@H]2CNC(=O)[C@]23CCCC[C@@H]13`, 683 s; with `O=[N+]([O-])c1ccc(-c2cn3ccccc3n2)cc1`, 598 s.
Molecule `Cc1nc(-c2cnccn2)nc2c1CCC(=O)N2CC1CCCO1` (centres undefined) showed an RP-LC retention time of 626 s.
The figure for `Cc1ccc2nc(-c3ccc(Cl)cc3)c(Nc3ccc4c(c3)OCCO4)n2c1` is 735 s; for `CCn1c(=O)c(N2CCN(C(=O)Nc3ccc4c(c3)OCO4)CC2)nc2ccccc21` it is 868 s; for `Cc1ccc(CNC(=O)C2CCN(c3nnc(C)c4c(C)n(-c5ccccc5)nc34)CC2)o1` it is 710 s.
The figure for `O=C(C1CCCC1)N1CCCCC1c1nc(C2CC2)n[nH]1` (centres undefined) is 676 s; for `COc1ccc(C(=O)Nc2ccc3nc(N4CC(C)CC(C)C4)cc(C(=O)O)c3c2)cc1` (centres undefined) it is 680 s; for `O=C(NCCCN1CCN(Cc2ccccc2)CC1)c1sc2ncccc2c1-n1cccc1` it is 646 s.
With `CC1CCN(C(=O)C2CCN(c3nc4ccc(-c5ccccc5)nc4s3)CC2)CC1` the figure was 1140 s; with `O=C(Cn1c(=O)oc2ccccc21)N1CCC(c2noc(-c3ccncc3)n2)C1` (centres undefined), 712 s.
Take `CCOCCCNC(=O)c1cc2c(n(-c3ccc(C(F)(F)F)cc3)c1=O)CCCC2=O`: the RP-LC retention time was determined as 853 s.
As for `CCSc1nnc(NC(=O)c2nnn(-c3nc4c(s3)CCCC4)c2C)s1`, the RP-LC retention time is 1190 s.
The figure for `COc1ncc(C(=O)NCc2cc(F)cc(F)c2)cn1` is 718 s; for `CC(C)CNC(=O)c1ccc2c(c1)CCCN2S(C)(=O)=O` it is 774 s.
`O=C(NCC1CCCO1)C1CCN(Cc2cc3ccccc3n2Cc2ccc(F)cc2)CC1` (centres undefined) registered an RP-LC retention time of 702 s.
The molecule `CCc1ccc(Nc2nc(C(=O)N3CCOCC3)nc3ccccc23)cc1` came in with an RP-LC retention time of 771 s.
The figure for `O=C1CC(c2nc(-c3ccc4c(c3)OCO4)no2)CN1c1ccc(F)cc1` (centres undefined) is 923 s; for `O=C(NCc1nc(-c2ccc3c(c2)Sc2ccccc2C(=O)N3C2CC2)no1)c1cccs1` it is 928 s; for `CC1=NS(=O)(=O)N(Cc2ccccc2)C=C1C(=O)OCc1ccc(C)cc1C` it is 1220 s.
For the molecule `Cc1ccc(C(=O)Nc2ccc(S(N)(=O)=O)cc2)cc1Br`, the RP-LC retention time came to 768 s.
The figure for `Cc1cc(C)n(-c2nc(CC(=O)N3CCc4ccccc4C3)cs2)n1` is 970 s.
In turn, `CCC(NC(=O)c1nnc(-c2ccc(S(=O)(=O)N(C)C)cc2)o1)c1cccs1` (centres undefined) yielded an RP-LC retention time of 912 s.
With `Cc1ccccc1OCC(O)CN1CCN(c2ccc(Cl)cc2)CC1` (centres undefined) the figure was 787 s.
As to `CCc1ccc(S(=O)(=O)N2CCC3(CC2)NCCN=C3NCc2ccc(F)c(Cl)c2)cc1`, the RP-LC retention time stood at 831 s.
With `CCc1cc(=O)n(CC(=O)NCc2ccccc2)c(N)n1` the figure was 566 s; with `O=C(Nc1cccc(Cl)c1)C1CCN(S(=O)(=O)c2cc(-c3noc(C4CC4)n3)cs2)CC1`, 1100 s.
With `CCN(Cc1ccc(Cl)cc1)Cc1cc(=O)n2ccc(C)cc2n1` the figure was 634 s; with `COc1ccc(-c2csc3c(=O)n(Cc4ccccn4)cnc23)cc1`, 815 s.
`CCn1c(=O)c(N2CCC(NC(=O)NCc3ccccc3)CC2)nc2cccnc21` yielded an RP-LC retention time of 826 s.
As for `O=C(CCS(=O)(=O)c1ccccc1)N1CCN(CC(F)(F)F)CC1`, the RP-LC retention time worked out at 711 s.
With `COc1ccc(C(=O)Nc2cnn(C)c(=O)c2N2CCOCC2)cc1Cl` the figure was 784 s; with `Cc1ccccc1S(=O)(=O)N1CCC(c2noc(-c3ccccn3)n2)C1` (centres undefined), 900 s; with `COc1ccc(-c2csc(C)n2)cc1S(=O)(=O)N1CCN(c2cccc(C)c2C)CC1`, 1270 s.
With `Cc1c(C(=O)NCCN2CCOCC2)sc2ncn(CC(=O)N3CCCCC3C)c(=O)c12` (centres undefined) the figure was 598 s; with `O=C(Cn1cccc(-c2nc(-c3ccc(Br)cc3)no2)c1=O)Nc1ccccc1`, 968 s; with `CCCC(=O)Nc1ccc(-c2nc(-c3ccc(Cl)cc3)no2)cc1`, 1240 s.
With `O=C(Nc1cccc(Cl)c1)N1CCc2nc(-c3ccccc3)ncc2C1` the figure was 997 s; with `COc1ccccc1NC(=O)N1CCCC1c1nncn1-c1ccccc1` (centres undefined), 711 s; with `N#CC(c1ccccc1)C(C/C(=N\O)c1ccccc1)c1ccccc1` (centres undefined), 1090 s.
Molecule `Cc1ccc(CNC(=O)Cn2nc(C)c3sc(-c4ccccc4)nc3c2=O)cc1C` displayed an RP-LC retention time of 968 s.
The molecule `CCn1cc(C)c(C(=O)O)c1CC(=O)Nc1cc(C)cc(C)c1` gave an RP-LC retention time of 907 s.
Consider `Cc1ccc(-c2noc(Cc3nc(-c4ccccc4)cs3)n2)cc1`, for which the RP-LC retention time amounted to 1260 s.
Molecule `CC1=C(c2ccccc2)S(=O)(=O)N=C1N1CCCN(C(=O)NC(C)(C)C)CC1` gave an RP-LC retention time of 790 s.
